What is called melting point is the temperature, or range, at which the solid turns liquid.

SMILES strings stand for the structures.

`O=C(NCCCC(c1cc(F)ccc1F)S(=O)(=O)c1ccc(Cl)cc1)OCCI` (centres undefined) returned a melting point of 100 to 101 °C.

For the compound `Cc1[nH]cnc1CSCCN=C(N)NCCNC(N)=NCCSCc1nc[nH]c1C`, the melting point lay in the range of 201 to 203 °C. The result for `CN(C)c1ccc(-c2[nH]nc3c2C(=O)c2c(NC(=O)CN4CCC(O)CC4)cccc2-3)cc1` reads 267 °C; that for `COC(=O)C(C)(C)Nc1ccc(OCc2ccccc2)cc1`, < 50 °C; that for `COc1cc2ncnc(N3CCC(C(C)(O)CN4CCC(C)NS4(=O)=O)CC3)c2cc1OC` (centres undefined), 186 to 188 °C. The result for `O=C(CNS(=O)(=O)c1ccc2ccccc2c1)NCCNC(=O)C1CCN(c2ccncc2)CC1` reads 107 to 109 °C; that for `CCOC(=O)c1c2n(c3cc(Cl)c(F)cc3c1=O)C(COC1CCCCO1)CS2` (centres undefined), 183 to 186 °C. The compound `Cc1ccccc1Oc1cccc(C=O)c1O` gave a melting point of 56 to 58 °C. The result for `Cc1ccc(C[C@H](N)[C@H](O)c2ccc(F)cc2)cc1OC(F)(F)C(F)F` (racemic) reads 112 to 113 °C; that for `CC(=O)Oc1cccc(-c2nc(=O)n(C(C)C)c3cc(C)ccc23)c1`, 148 to 150 °C. The result for `CN1CCN(c2ccc(C=CC(=O)N3CCc4c([nH]c5ccccc45)C3c3ccc4c(c3)CCO4)cn2)CC1` (centres undefined) reads > 260 °C; that for `COCCOc1ccc(N=Nc2c(C#N)[nH]n(-c3ccccc3)c2=O)cc1S(=O)(=O)O`, 263 to 265 °C; that for `CN(C)c1ccc(C(=O)CC(=O)C(C)(C)C)cc1`, 61.5 to 61.8 °C. The result for `N[C@@H](CCC(=O)NCCS(=O)(=O)O)C(=O)O` reads 202 to 204 °C; that for `CC1(C)CCOc2cc(C(=O)Nc3ccc(C(=O)O)cc3)ccc21`, 279 to 281 °C.

In the case of `CCCC(=O)C1=C(O)CC2(CCC(C)CC2)OC1=O` (centres undefined), the melting point was 60 to 63 °C. The result for `CC1=NN(C)C(=O)C1(Cl)C(=O)c1ccccc1` (centres undefined) reads 70.5 to 72 °C; that for `CCOC(=O)c1sc(Oc2cccnc2)c2c1CCc1cnn(C)c1-2`, 247 to 248 °C; that for `COc1ccc(CN(CC2CCOCC2)S(=O)(=O)c2ccc(Cl)cc2)cc1C(=O)O`, 158 to 159 °C. Take `CCCCCCCCCCCN=C=O`: the melting point was 109 to 110 °C. `CCO/N=C(/CC)c1ccc(Cl)c2nc3n(c12)CCCN3c1ccc(Cl)cc1Cl`: the melting point lay within 140 to 141 °C. The value for `COC(=O)c1ccc(OCCCC2Cc3c(c(OC)c(OC)c(OC)c3OC)C2)cc1` was 70 to 72 °C. The result for `O=[N+]([O-])c1cccc(Oc2cc(Oc3cccc([N+](=O)[O-])c3)cc(C(F)(F)F)c2)c1` reads 118 °C; that for `O=C(O)C(O)c1ccc2oc([N+](=O)[O-])c(-c3ccccc3)c2c1` (centres undefined), 158 to 161 °C.

Compound `COc1cc2c(c(OC)c1)C1CCC3(C)C(OC(C)=O)CCC3C1CC2` (centres undefined) gave a melting point of 131 to 134 °C. The compound `Cc1nnc(-c2ccccc2F)n2nc(OCc3ncnn3C)c(-c3ccoc3)c12` had a melting point of 150 to 153 °C.

For the compound `CC(Oc1ccc(F)cc1)c1ccnc2ncnn12` (centres undefined), the melting point was in the range of 100 to 102 °C. The result for `CN1CCC(c2c[nH]c3ccc(OS(=O)(=O)c4ccccc4)cc23)CC1` reads 192 to 194 °C; that for `CC(C)c1c(Sc2ccccc2)n(CC2=CCC(CO)C2)c(=O)[nH]c1=O` (centres undefined), 166 to 168 °C; that for `O=C(OC1CCCCC1)C1Oc2ccccc2Cc2ccccc2O1`, 120 to 125 °C. The result for `C#CC(C)(C)N=C(NC#N)SC` reads 128 to 130 °C; that for `Cc1cc(NCCO)c2nn(C)c(C)c2n1`, 186 to 189 °C; that for `CNC(=O)c1cc(-c2ccc(OC)cc2)nn(CC2CC2)c1=O`, 137 to 138 °C.

Consider `COc1ccccc1Oc1ccc(Br)cc1OC`, for which the melting point lay in the range of 58 to 60 °C. The result for `c1ccc2c(c1)CNc1ccccc1C2` reads 117 to 122 °C; that for `C[C@H](Nc1nc(C#N)nc(Cl)c1-c1c(F)cc(F)cc1F)C(F)(F)F`, 134 to 136 °C; that for `CC(C)CC(C(=O)O)C(=O)O`, 102 to 105 °C. `O=C1c2cc(OCc3ccc4ccccc4n3)ccc2CCC1Cc1ccccc1` (centres undefined) showed a melting point of 117 to 118 °C. For `CC(=O)c1cc2c(s1)C(=O)c1ccsc1C2=O`, the melting point was in the range of 223 to 225 °C. The compound `COc1cc(Cc2cnc(N)nc2N)c2c(c1OC)OC(C)C2` (centres undefined) yielded a melting point of 216 to 219 °C. The result for `COc1cc(CC(=O)N[C@@H](COC(=O)C(C)(C)C)Cc2ccccc2)ccc1OCCN=[N+]=[N-]` reads 77 to 80 °C; that for `CCOc1cc(C)ccc1C1CCN(CCCCC(=O)Nc2ccc(-c3ccc(C(F)(F)F)cc3)cc2)CC1`, 178 °C; that for `CCS(=O)(=O)CCn1c(=N)sc2cc(C(F)(F)C(F)(F)F)ccc21`, 125 °C. The compound `CC1(C)Nc2ncc(I)cc2N(Cc2cc(F)ccc2F)C1=O` showed a melting point of 198 to 201 °C. The result for `COc1ccc(Sc2cc(Cl)ccc2[N+](=O)[O-])c(C(=O)O)c1` reads 184 to 186 °C; that for `COc1cc(S(=O)(=O)C(c2cc(F)ccc2F)c2cc(N)ncc2Cl)ccc1Cl` (centres undefined), 198 to 200 °C; that for `CCOC(=O)c1ccc(CN(C(C)=O)C(=O)OC(C)(C)C)cc1`, 96 to 97 °C. On to `Cc1cc2c(-c3ccccc3)c(COS(C)(=O)=O)n(C)c(=O)c2cc1C`, for which the melting point fell in the range of 150 to 151 °C. As to `CNC(=S)Nc1ccc(C2=NNC(=O)CC2C)cc1` (centres undefined), the melting point is 213 °C.

On to `Cc1cc(C)nc(NC(=O)NS(=O)(=O)c2c(Cl)c(C)nn2C)n1`, for which the melting point was in the range of 191 to 194 °C. The value for `NC(=O)c1sc2nccc(N3CCN(c4ccccc4)CC3)c2c1N` was 250 to 252 °C; that for `O=C(CN1CCN2c3ccccc3Cn3cccc3C2C1)c1ccc(Cl)cc1` (centres undefined) was 71 to 74 °C; that for `Nc1nc(SCc2nc(C3CC3)no2)ncc1Cc1ccccc1` was 94 °C. In turn, `OCC1Cc2ccccc2OC1CO` (centres undefined) registered a melting point of 82 to 85 °C. Take `CCOC(=O)c1cn(C2CC2)c2c(F)c(NCCO)c(F)c(F)c2c1=O`: the melting point fell in the range of 193 to 195 °C. The compound `Cc1cc(Br)cnc1CCCCN=C(NC#N)NCc1ccccc1` registered a melting point of 140 to 141 °C.

With `COc1ccc2c(n1)C1(CO2)C(=O)N(Cc2ncc(Cl)n2C)c2ccccc21` (centres undefined), the melting point fell in the range of 169 to 171 °C. The result for `Oc1ccccc1OCC(F)(F)F` reads 49 to 50 °C. The value for `COc1ccc(C(c2ccc(OC)c(OCc3ccccc3)c2)n2cncn2)cc1OCc1ccccc1` was 96 to 99 °C; that for `CC(C)(C)OC(=O)C(=O)C=[N+]=[N-]` was 100 °C; that for `CC(C)(C)C(=O)Nc1ccc(F)c(Oc2ccc(C3CC(=O)NC(=O)C3)cc2)c1F` was 172 °C. `Cc1ccc(S(=O)(=O)N(C)c2ccc(C)c([N+](=O)[O-])c2)cc1`: the melting point fell in the range of 104 to 106 °C. The value for `O=CN1CC2CCCc3cccc1c32` (centres undefined) was 93 to 94 °C; that for `CCOC(=O)c1ncn2c1C(C)N=C(c1ccccc1F)c1cc(C#C[Si](C)(C)C)ccc1-2` (centres undefined) was 186 to 187 °C. The result for `Cc1cc(OCc2ccc(-c3ccc(OC(F)(F)F)cc3)nc2C)ccc1OC(C)(C)C(=O)O` reads 149 to 151 °C; that for `CCCCCCc1ccc(-n2c(-c3ccc(C)cc3)ccc2-c2ccc(C)cc2)cc1`, 147 to 148 °C. With `O=C(O)CCCCCCCCCCC(=O)c1ccccc1`, the melting point fell in the range of 83 to 86 °C. The result for `Cc1c(-c2ccc(=O)[nH]c2)cccc1[N+](=O)[O-]` reads 214 to 216 °C; that for `CC(C)Cc1nn(C)c(=O)c2cc(C(O)c3cccc4ccccc34)oc12` (centres undefined), 110 to 112 °C. Take `OC(COC1CCCCO1)(Cn1cncn1)c1ccc(Cl)cc1` (centres undefined): the melting point amounted to 70 °C.

`Cc1nc2ccccc2c(NCC(C)O)c1Br` (centres undefined) returned a melting point of 147 to 149 °C. The value for `CC(C)N1CCOC(CN2C(=O)C3(COc4cc5c(cc43)OCCO5)c3ccccc32)C1` (centres undefined) was 102 to 125 °C; that for `CN(CCCCNC(=NCCCOc1cccc(CN2CCCCC2)c1)NC#N)CCC(c1ccc(F)cc1)c1ccccn1` (centres undefined) was 105 to 110 °C. `N#Cc1cc(C(=O)NNC(=O)c2occc2-c2ccccc2Cc2ccccc2)ccc1O` had a melting point of 175 to 176 °C.

In turn, `CCOC(=O)C(=CC1(OC)C=C2OCOC2=CC1)C(=O)OCC` (centres undefined) came in with a melting point of 118 °C. The result for `Cc1ccccc1NC1=CCC(C)n2c1ncc(C(=O)O)c2=O` (centres undefined) reads 157 to 159 °C. Consider `CCOC(=O)Cc1ccc(-n2cc(F)cn2)cc1`, for which the melting point lay in the range of 83.5 to 84.5 °C. As to `Cn1ncc(C(=O)NC2COC2)c1C(=O)Nc1ccn2nc(-c3ccccc3)nc2c1`, the melting point is > 250 °C. The result for `CC1(C)CC(C)(C)c2cc(NC(=O)c3ccc(O)cc3)ccc21` reads 185 to 187 °C; that for `CC(C)Oc1ccc(NCCS(=O)(=O)NCCCOc2cccc(CN3CCCCC3)c2)cc1`, 110 to 122 °C; that for `CC(C)n1nc(-c2cnc(N)nc2-c2ccc(C(F)(F)F)cc2)ccc1=O`, 209 to 210 °C. The value for `NNC(=O)c1[nH]cc(OCc2ccccc2)c(=O)c1Br` was 184 °C; that for `O=C(c1ccc(C2CCCCC2)cc1)N1Cc2ccc(C(=O)C(Cl)(Cl)Cl)n2Cc2ccccc21` was 172 to 174 °C. The compound `CC1CCC(C(C)C)C(OCC(=O)OC2CC(=O)C(CCCCCCC(=O)O)=C2C=Cc2ccccc2)C1` (centres undefined) returned a melting point of 103 to 104 °C. Compound `Cn1cnc2nc(-c3ccc(C(F)(F)F)cc3)nn2c1=S` showed a melting point of 270 to 272 °C. On to `O=[N+]([O-])c1cc(Cl)c(Cl)cc1NCCCCl`, for which the melting point worked out at 78 °C. The value for `O=C1NCCN1Cc1cccc(F)c1` was 103 to 105 °C; that for `CC(O)c1cncc(C2(O)CCN(CC34CC(c5ccccc53)c3ccccc34)CC2)c1` (centres undefined) was 177 to 183 °C; that for `COc1cc(Br)c(OC)c(/C=C/C(=O)/C=C/c2cc(OC)cc(Br)c2OC)c1` was 122 to 125 °C.

The record behind these values is a melting point compilation (Tetko et al.; mined from patent text by program, amines drawn as free bases though some values may be those of a salt).
